Values of other authors in patent publication US20090017243A1, “Conveyor lubricant, passivation of a thermoplastic container to stress cracking and thermoplastic stress crack inhibitor” (Ecolab Inc., priority 1999, published 2009).

Conditions: 96 wt. % solution of glycerol in water

specific gravity: 1.25
Compound: OCC(O)CO [glycerol]
